Patent US20180346525A1, “DIAGNOSTIC AND THERAPEUTIC QUORUM-SENSING-MANIPULATION MOLECULES THAT ARE TRACKABLE FOR HEALTH-CARE AND INDUSTRIAL SYSTEMS” (The Trustees of Princeton University, priority 2017, published 2018)

Test system: S. aureus Agr QS (AgrC-I/AgrA, agrP3 promoter)
Test: Agr QS fluorescence reporter (agrP3-mkate2) in S. aureus reporter strain
Format: cell-based, Staphylococcus aureus
Conditions: FIG. 3
Text: FIG. 1 illustrates the Agr QS responses of S. aureus to exogenously supplied agonists and antagonists or conjugates of those compounds attached to detectable moieties. To follow the QS status of S. aureus cells, confocal microscopy and an S. aureus reporter strain that produced the fluorescent protein mKate2 in response to exogenous addition of AIP-I was used. The reporter strain was a ΔagrBDCA ΔRNAIII S. aureus mutant harboring agrCA driven by the native agrP2 promoter. […] The plasmid also harbored the Agr-activated agrP3 promoter fused to mkate2. […] This QS response was repressed by the administration of AIP-II. […] However, once the cells detected the exogenous autoinducers, the cells produced mKate2 (red fluorescent protein). […]
Transcription from fluorescence reporter genes was measured in S. aureus strain MK242. […] Using a Synergy 2 plate reader (Biotek, Winooski, Vt.), GFPmut2 and mKate2 levels were measured at 484 nm/528 nm and 588 nm/633 nm, respectively. […]
Imaging was performed using a Nikon Eclipse Ti inverted microscope (Melville, N.Y.) fitted with a Yokogawa CSU X-1 confocal spinning disk scanning unit (Biovision Technologies, Exton, Pa.) and DU-897 X-9351 camera (Andor, Concord, Mass.). […] In the area of an individual cell, both the constitutive GFPmut2 fluorescence and the QS controlled mKate2 fluorescence were measured, subtracted from background signals and summed. […]

AIP-I
mKate2 production in the reporter strain (1 μM compound alone): produced
Specific binding to AgrC receptors, indicated by AIP-II competition: specifically bind to AgrC receptors
